From ChEMBL document CHEMBL1134801, “Dibasic inhibitors of human mast cell tryptase. Part 3: identification of a series of potent and selective inhibitors containing the benzamidine functionality” (Bioorg Med Chem Lett, 2001)

Legend:
Tryptase = Tryptase (Homo sapiens, UniProt Q9BZJ3+Q15661+Q9NRR2); test: Inhibition of Tryptase in human mast cells; assay type: cell-based
Plasminogen = Plasminogen (Homo sapiens, UniProt P00747); test: Inhibition plasmin in human mast cells; assay type: cell-based
Sequence of Plasminogen (P00747 97-580 limits assumed): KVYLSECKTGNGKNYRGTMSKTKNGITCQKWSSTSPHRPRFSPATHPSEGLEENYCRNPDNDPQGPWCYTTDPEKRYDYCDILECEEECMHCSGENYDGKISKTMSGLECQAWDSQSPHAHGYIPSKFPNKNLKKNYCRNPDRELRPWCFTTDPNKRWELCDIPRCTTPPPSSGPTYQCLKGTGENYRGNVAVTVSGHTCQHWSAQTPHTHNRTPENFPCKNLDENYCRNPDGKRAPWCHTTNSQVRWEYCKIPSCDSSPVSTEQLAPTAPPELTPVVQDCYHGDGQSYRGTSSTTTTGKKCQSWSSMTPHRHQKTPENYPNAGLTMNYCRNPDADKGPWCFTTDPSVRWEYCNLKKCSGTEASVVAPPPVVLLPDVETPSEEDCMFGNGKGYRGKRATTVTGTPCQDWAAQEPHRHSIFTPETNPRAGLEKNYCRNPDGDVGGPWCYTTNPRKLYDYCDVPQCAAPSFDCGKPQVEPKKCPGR
Sequence of Plasminogen (P00747 581-810 limits assumed): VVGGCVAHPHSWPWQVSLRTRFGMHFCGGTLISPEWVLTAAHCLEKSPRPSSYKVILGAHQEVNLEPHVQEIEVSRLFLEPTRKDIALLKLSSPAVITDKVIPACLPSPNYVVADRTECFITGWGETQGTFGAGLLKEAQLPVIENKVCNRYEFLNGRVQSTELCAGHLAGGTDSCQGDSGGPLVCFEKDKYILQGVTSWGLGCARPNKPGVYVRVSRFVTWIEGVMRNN

Trypsin = Trypsin (Homo sapiens, UniProt P07477+P07478+P35030); test: Inhibition of trypsin in human mast cells; assay type: cell-based
Prothrombin = Prothrombin (Homo sapiens, UniProt P00734); test: Inhibition of thrombin in human mast cells; assay type: cell-based
[1] = Michaelis-Menten constant was determined for the compound after incubation with plasma amine oxidase; assay type: ADME, cell-free

Row | Structure (SMILES) | Ki (Tryptase) | Ki (Plasminogen) | Ki (Trypsin) | Ki (Prothrombin) | Vmax / Km [1]
1 | N=C(N)c1ccc(NC(=O)CC2CCN(C(=O)O[C@H]3CCC[C@@H](OC(=O)N4CCN(C(=O)NCCC5CCNCC5)CC4)CCC3)CC2)cc1 | 0.0089 µM | 293 µM | 21.1 µM | 52.9 µM | –
2 | N=C(N)N1CCC(CNC(=O)CNC(=O)OCc2ccc(COC(=O)NCC(=O)NCC3CCN(C(=N)N)CC3)cc2)CC1 | 0.155 µM | > 1000 µM | 466 µM | 386 µM | –
3 | N=C(N)c1ccc(S(=O)(=O)NCC2CCN(C(=O)O[C@H]3CCC[C@@H](OC(=O)N4CCN(C(=O)NCCC5CCNCC5)CC4)CCC3)CC2)cc1 | 0.028 µM | > 1000 µM | 16.8 µM | > 1000 µM | –
4 | NCC1CCN(C(=O)NCC2CCN(C(=O)OCc3ccc(COC(=O)N4CCC(CNC(=O)N5CCC(CN)CC5)CC4)cc3)CC2)CC1 | 0.024 µM | > 1000 µM | 515 µM | > 1000 µM | 1870
5 | N=C(N)c1ccc(C(=O)NCC2CCN(C(=O)O[C@H]3CCC[C@@H](OC(=O)N4CCC(CNC(=O)c5ccc(C(=N)N)cc5)CC4)CCC3)CC2)cc1 | 0.00085 µM | 62.2 µM | 4.67 µM | 20.8 µM | –
6 | N=C(N)c1ccc(CNC(=O)N2CCN(C(=O)O[C@H]3CCC[C@@H](OC(=O)N4CCN(C(=O)NCc5ccc(C(=N)N)cc5)CC4)CCC3)CC2)cc1 | 0.0087 µM | – | 25 µM | – | –
7 | N=C(N)c1ccc(CC(=O)N2CCN(C(=O)O[C@H]3CCC[C@@H](OC(=O)N4CCN(C(=O)NCCC5CCNCC5)CC4)CCC3)CC2)cc1 | 0.0067 µM | > 1000 µM | 63.1 µM | 94.4 µM | –
8 | N=C(N)c1ccc(CNC(=O)N2CCN(C(=O)O[C@H]3CCC[C@@H](OC(=O)N4CCN(C(=O)NCCC5CCNCC5)CC4)CCC3)CC2)cc1 | 0.00091 µM | 287 µM | 47.2 µM | 111 µM | –
9 | COC(=O)NC(=N)c1ccc(CNC(=O)N2CCN(C(=O)O[C@H]3CCC[C@@H](OC(=O)N4CCN(C(=O)NCCC5CCNCC5)CC4)CCC3)CC2)cc1 | 0.0406 µM | > 1000 µM | 554 µM | 561 µM | –
10 | N=C(N)c1ccc(CNC(=O)N2CCN(C(=O)O[C@H]3CCC[C@@H](OC(=O)N4CCN(C(=O)CCCC5CCNCC5)CC4)CCC3)CC2)cc1 | 0.00112 µM | 310 µM | 52.1 µM | 102 µM | –
11 | N=C(N)c1ccc(C(=O)NCC2CCN(C(=O)OCc3ccc(COC(=O)N4CCC(CNC(=O)c5ccc(C(=N)N)cc5)CC4)cc3)CC2)cc1 | – | 0.006 µM | 4.4 µM | 42.2 µM | –
12 | NCC1CCN(C(=O)NCCCCNC(=O)OCc2ccc(COC(=O)NCCCCNC(=O)N3CCC(CN)CC3)cc2)CC1 | 0.112 µM | > 1000 µM | > 1000 µM | > 1000 µM | –
13 | N=C(N)c1ccc(C(=O)NCC2CCN(C(=O)O[C@H]3CCC[C@@H](OC(=O)N4CCN(C(=O)CCCC5CCNCC5)CC4)CCC3)CC2)cc1 | 0.0164 µM | 320 µM | 37.4 µM | 31.9 µM | –
14 | N=C(N)N1CCC(CCNC(=O)CNC(=O)OCc2ccc(COC(=O)NCC(=O)NCCC3CCN(C(=N)N)CC3)cc2)CC1 | 0.11 µM | > 1000 µM | > 1000 µM | 423 µM | –
15 | N=C(N)c1ccc(C(=O)NCC2CCN(C(=O)O[C@H]3CCC[C@@H](OC(=O)N4CCN(C(=O)NCCC5CCNCC5)CC4)CCC3)CC2)cc1 | 0.016 µM | 279 µM | 38.8 µM | 41.2 µM | –
